Measurements taken from publication PMC6930524, “A Prospective Repurposing of Dantrolene as a Multitarget Agent for Alzheimer’s Disease” (Molecules, 2019).

Columns and labels:
[1] = biological target: MAO B, human enzyme; set-up: method as in PMID 22282722; conditions: competitive inhibition; cited from earlier work
[2] = DPPH radical scavenging assay; format: physicochemical; conditions: compound 50 μM, DPPH 100 μM
From the text: (§1) Starting from these evidences, we tested DAN in two in vitro models of radical scavenging activity, i.e., the 1,1-diphenyl-2-picryl-hydrazyl (DPPH) and 2,2′-azinobis-(3-ethylbenzothiazoline-6-sulfonic acid) (ABTS) free radical production. Both generate stable nitrogen radicals showing high absorption in visible spectrum, thus allowing easy and straightforward spectrophotometric measures. […] It can be assumed that the antioxidant activity of DAN is independent from its radical scavenging properties.
(§2) Already published protocols for DPPH and […] radical scavenging were used. The scavenging of the radical DPPH^·, or the monocation radical ABTS^·+, were determined by measuring the loss of absorbance at 515 or 755 nm, respectively. Samples were prepared in clear polystyrene flat-bottomed 96-well microplates. […] A preliminary absorbance reading at 755 nm allowed to determine the actual ABTS^·+ concentration (normally 60–70 μM; extinction coefficient ε = 12,000) and set the final concentration of inhibitors to 0.2[ABTS^·+]. 215 μL of ABTS^·+ solution were mixed with 35 μL of stock solution of inhibitors and the decrease in absorbance was monitored. Antioxidant activity was determined from Equation (2) as the percentage of radical production of inhibitor containing samples, compared with control: % radical production = 100 × ABSsample/ABScontrol(2)

[3] = ABTS radical scavenging assay; format: physicochemical; conditions: compound at 0.2·[ABTS+]
From the text: as §1, §2

Row | Structure (SMILES) | Ki for human MAO B (competitive) [1] | DPPH radical scavenging activity [2] | ABTS radical scavenging activity [3]
1 | CCc1ccc(CCOc2ccc(CC3SC(=O)NC3=O)cc2)nc1 (stereo not shown) [pioglitazone] | submicromolar |  | 
2 | CN(CCOc1ccc(CC2SC(=O)NC2=O)cc1)c1ccccn1 (stereo not shown) [rosiglitazone] | low- |  | 
3 | O=c1c(O)c(-c2ccc(O)c(O)c2)oc2cc(O)cc(O)c12 [quercetin] |  | strong radical scavenger | strong radical scavenger
